Assay [1] concerns the target T1, Protein cereblon/Bromodomain-containing protein 4 (Homo sapiens) (UniProt O60885+Q96SW2). Briefly: PROTAC activity at CRBN/BRD4-S in human HepG2 cells assessed as induction of protein degradation at 10 to 3000 nM measured after 24 hrs by Western blot analysis. Conditions: dose 10-3000 nM. The assay is classed as cell-based. For orientation: A western blot detects proteins with antibodies after separation by electrophoresis.

In assay [2] the target is T1, Protein cereblon/Bromodomain-containing protein 4 (Homo sapiens). The experiment in a line: PROTAC activity at CRBN/BRD4-L in human MCF7 cells assessed as induction of protein degradation at 30 nM measured after 3 to 6 hrs by Western blot analysis. The assay is classed as cell-based. The settings on record: time 3-6 hrs.
The target in assay [3] is T2, Protein cereblon/Bromodomain-containing protein 3 (Homo sapiens) (UniProt Q15059+Q96SW2). The experiment in a line: PROTAC activity at CRBN/BRD3 in human MM1.S cells assessed as induction of protein degradation at 30 nM pretreated with (6R)-N-(4-chlorophenyl)-1-methyl-8-(1-methyl-1H-pyrazol-4-yl)-5,6-dihydro-4H-benzo[f][1,2,4]triazolo[4,3-a]azepin-6-amine for 2 hrs followed by compound addition and measured after 4 hrs by Western blot analysis. Type of assay: cell-based.
T2 sequence (Q15059 2-726 limits assumed): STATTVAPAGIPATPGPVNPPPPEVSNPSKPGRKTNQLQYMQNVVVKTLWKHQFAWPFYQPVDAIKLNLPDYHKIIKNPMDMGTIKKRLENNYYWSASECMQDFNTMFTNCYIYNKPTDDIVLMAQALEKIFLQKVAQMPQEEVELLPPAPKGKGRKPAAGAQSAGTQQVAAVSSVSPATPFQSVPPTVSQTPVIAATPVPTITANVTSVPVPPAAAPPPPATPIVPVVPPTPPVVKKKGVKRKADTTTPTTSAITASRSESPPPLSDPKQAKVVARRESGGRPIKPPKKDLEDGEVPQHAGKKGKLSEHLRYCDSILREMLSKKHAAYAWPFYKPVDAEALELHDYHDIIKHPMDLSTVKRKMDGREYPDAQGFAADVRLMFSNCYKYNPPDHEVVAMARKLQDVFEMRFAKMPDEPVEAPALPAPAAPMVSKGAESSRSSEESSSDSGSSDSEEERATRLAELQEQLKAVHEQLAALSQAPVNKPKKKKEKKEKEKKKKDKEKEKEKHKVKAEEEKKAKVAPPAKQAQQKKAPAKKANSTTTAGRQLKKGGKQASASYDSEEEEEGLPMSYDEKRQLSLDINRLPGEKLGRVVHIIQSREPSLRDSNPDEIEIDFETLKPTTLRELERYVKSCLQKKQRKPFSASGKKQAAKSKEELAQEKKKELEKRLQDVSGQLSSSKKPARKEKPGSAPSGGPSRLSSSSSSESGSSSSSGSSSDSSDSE
T2 sequence (Q96SW2 whole entry partner): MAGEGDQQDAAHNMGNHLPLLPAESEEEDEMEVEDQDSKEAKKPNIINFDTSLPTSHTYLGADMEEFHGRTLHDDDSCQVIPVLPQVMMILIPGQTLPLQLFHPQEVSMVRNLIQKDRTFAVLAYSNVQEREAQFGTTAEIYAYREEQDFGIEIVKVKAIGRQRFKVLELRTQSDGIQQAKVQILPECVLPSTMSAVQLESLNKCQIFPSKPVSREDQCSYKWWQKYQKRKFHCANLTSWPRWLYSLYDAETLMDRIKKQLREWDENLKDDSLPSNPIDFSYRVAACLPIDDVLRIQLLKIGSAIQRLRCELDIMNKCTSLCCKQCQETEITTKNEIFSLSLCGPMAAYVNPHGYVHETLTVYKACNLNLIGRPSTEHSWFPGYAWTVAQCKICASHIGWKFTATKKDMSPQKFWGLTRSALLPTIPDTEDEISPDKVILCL

The target in assay [4] is T1, Protein cereblon/Bromodomain-containing protein 4 (Homo sapiens). Briefly: PROTAC activity at CRBN/BRD4-L in human MV4-11 cells assessed as induction of protein degradation at 0.1 to 30 nM measured after 24 hrs by Western blot analysis. Type of assay: cell-based. The settings on record: dose 0.1-30 nM.
Assay [5] has as its target T2, Protein cereblon/Bromodomain-containing protein 3 (Homo sapiens). The experiment in a line: PROTAC activity at CRBN/BRD3 in human HGC-27 cells assessed as induction of protein degradation at 30 nM measured after 8 to 24 hrs by Western blot analysis. The settings on record: time 8-24 hrs. Type of assay: cell-based.
The target is the same in assay [6]. The experiment in a line: PROTAC activity at CRBN/BRD3 in human HepG2 cells assessed as induction of protein degradation measured after 24 hrs by Western blot analysis. The assay is classed as cell-based. Conditions: dose 10-3000 nM.
For assay [7], the target named is T1, Protein cereblon/Bromodomain-containing protein 4 (Homo sapiens). Briefly: PROTAC activity at CRBN/BRD4-L in human HGC-27 cells assessed as induction of protein degradation at 30 nM measured after 8 to 24 hrs by Western blot analysis. Type of assay: cell-based. The settings on record: time 8-24 hrs.
The target is the same in assay [8]. The experiment in a line: PROTAC activity at CRBN/BRD4-L in human MM1.S cells assessed as induction of protein degradation at 2 nM measured after 24 hrs by Western blot analysis. Type of assay: cell-based.
Assay [9] has the same target. The experiment in a line: PROTAC activity at CRBN/BRD4-L in human A549 cells assessed as induction of protein degradation measured after 24 hrs by Western blot analysis. The assay is classed as cell-based. Conditions: dose 3-1000 nM.
Assay [10] concerns the target T2, Protein cereblon/Bromodomain-containing protein 3 (Homo sapiens). The experiment in a line: PROTAC activity at CRBN/BRD3 in human HeLa cells assessed as induction of protein degradation measured after 24 hrs by Western blot analysis. Type of assay: cell-based. Conditions: dose 1-300 nM.
The test system of assay [11] is MM1.S. Briefly: Induction of cell cycle arrest in human MM1.S cells assessed as accumulation of cells at G1 phase at 3 nM incubated for 24 hrs by flow cytometry analysis (reference value: 56.32%). The assay is classed as functional. A general note: A flow cytometer gives signals particle by particle.
For assay [12], the target named is Bromodomain-containing protein 3 (Homo sapiens, UniProt Q15059). Briefly: Binding affinity to recombinant human BRD3 BD2 (306 to 417 residues) assessed as inhibition constant by fluorescence polarization binding assay. A general note: Polarisation of emitted light reports the rotation of a fluorescent probe.
Chain of Bromodomain-containing protein 3 (Q15059 whole entry, the tested form may be a part): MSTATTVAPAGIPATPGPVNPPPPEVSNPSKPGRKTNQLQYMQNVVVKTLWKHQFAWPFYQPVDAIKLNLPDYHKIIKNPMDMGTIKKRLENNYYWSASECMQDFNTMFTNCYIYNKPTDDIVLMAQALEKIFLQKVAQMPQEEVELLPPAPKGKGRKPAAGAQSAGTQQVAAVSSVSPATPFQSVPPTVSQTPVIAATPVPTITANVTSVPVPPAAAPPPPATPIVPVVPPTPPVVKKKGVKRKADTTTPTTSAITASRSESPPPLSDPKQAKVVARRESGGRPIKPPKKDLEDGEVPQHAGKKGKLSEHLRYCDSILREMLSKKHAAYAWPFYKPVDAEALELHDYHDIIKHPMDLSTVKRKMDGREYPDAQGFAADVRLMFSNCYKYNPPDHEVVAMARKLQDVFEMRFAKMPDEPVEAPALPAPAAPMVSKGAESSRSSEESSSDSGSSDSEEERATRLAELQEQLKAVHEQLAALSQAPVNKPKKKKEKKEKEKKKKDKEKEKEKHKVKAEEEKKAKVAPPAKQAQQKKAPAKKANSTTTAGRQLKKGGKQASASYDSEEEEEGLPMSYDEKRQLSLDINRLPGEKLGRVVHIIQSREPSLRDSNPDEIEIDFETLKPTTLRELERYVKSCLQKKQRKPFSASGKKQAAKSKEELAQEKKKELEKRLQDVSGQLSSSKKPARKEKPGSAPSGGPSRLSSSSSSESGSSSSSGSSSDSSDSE
For assay [13], the target named is T1, Protein cereblon/Bromodomain-containing protein 4 (Homo sapiens). The experiment in a line: PROTAC activity at CRBN/BRD4-L in human U-937 cells assessed as induction of protein degradation by Western blot analysis. The assay is classed as cell-based.
In assay [14] the test system is MM1.S. The experiment in a line: Downregulation of BRD4 expression in human MM1.S cells by proteomic analysis. The assay is classed as functional, cell-based.
Assay [15] has as its target T1, Protein cereblon/Bromodomain-containing protein 4 (Homo sapiens). Briefly: PROTAC activity at CRBN/BRD4-L in human MM1.S cells assessed as induction of protein degradation measured after 24 hrs by Western blot analysis. Type of assay: cell-based.

This note sets out measurements from ChEMBL document CHEMBL5321219, “Selective degradation of cellular BRD3 and BRD4-L promoted by PROTAC molecules in six cancer cell lines” (Eur J Med Chem, 2023).

Activity calls are given as the source filed them. The rule behind the calls is not given here.

As a reminder, the Ki is the dissociation constant of the complex between target and ligand, obtained from inhibition or displacement.

T1 sequence (Q96SW2 whole entry, looked up, other chains not shown): as the sequence (Q96SW2 whole entry partner) above

For the compound `Cc1nnc2n1-c1ccc(-c3ccc(CNCCCCc4cccc5c4CN(C4CCC(=O)NC4=O)C5=O)cc3)cc1C(Nc1ccc(Cl)cc1)CC2` (stereo not given), the outcome in assay [1], in [3] and in assay [13] was inactive. The result in assay [2], in assay [4], in assay [5], in [7], in assay [8] and in [14] was Active. Further, the Activity entry was “Dose-Dependent Effect” in assay [6]; “Dose-Dependent Effect” in assay [9]; “Dose-Dependent Effect” in assay [10]; 62.34% in assay [11]; “Dose-Dependent Effect” in assay [15]. Moreover, the Ki in assay [12] was 2.45 nM.
